What was measured:
[1] = molecular target: T1, β5 subunit of the human constitutive proteasome (CPS) (Homo sapiens, UniProt P28074); assay: β5 inhibition assay, human constitutive proteasome (Suc-LLVY-AMC); assay type: biochemical; conditions: IC50 class, Suc-LLVY-AMC substrate
T1 construct: purchased Boston Biochem E-360
Description: The enzymatic activity of the β5 subunit of the human constitutive proteasome (CPS) is analyzed. In another assay, which differs from the assay of the human constitutive proteasome only in using the human immunoproteasome (IPS) the enzymatic activity of the β5 subunit of the human immunoproteasome (IPS) is analyzed. […] Inhibition is indicated as IC50 [nM] (“-”=not measured).

[2] = molecular target: T2, β5 subunit of the human immunoproteasome (IPS) (Homo sapiens, UniProt P28062); assay: β5 inhibition assay, human immunoproteasome (Suc-LLVY-AMC); assay type: biochemical; conditions: IC50 class, Suc-LLVY-AMC substrate
T2 construct: purchased Boston Biochem E-370
Summary of the method: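 Human immunoproteasome (1 nM final) was preincubated 10 min at RT with compound in 100 mM HEPES pH 7.5, 50 mM NaCl, 0.02% SDS, 1 mM DTT. Suc-LLVY-AMC (22.6 μM final) was then added for 4 h at RT in the dark. After stopping with 1 μM bortezomib, AMC fluorescence was read (ex 355/em 460 nm).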

[3] = test system: A549 (human lung carcinoma cell line); assay: Glo assay of A549 cells (Table 3; ProteasomeGlo plating scheme); assay type: cell-based; conditions: Homo sapiens; A549 cells; read-out: PGLo A549
Summary of the method: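 Compound treatment lasts 105 minutes at 37° C. under 5% CO2. Suc-LLVY-Glo substrate premixed with detection reagent (60 min at room temperature) is then added directly to the cells, and luminescence after 10-15 min in the dark gives the IC50 in nM.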

[4] = test system: A2780 (human ovarian cancer cell line); assay: 48 hr CTG viability assay, A2780; assay type: cell-based
Description: (§1) A viability assay was conducted for 48 hours to evaluate the inhibition of cancer cell growth by proteasome inhibitors. Briefly, the candidate cell line was plated with a 96-well plate following density of cells, respectively. 6×10^3 Cells/well for A2780 (human ovarian cancer cell line) and MDA-MB-468 (breast carcinoma), 8×10^3 Cells/well for Hs746T (human gastric carcinoma cell line), 1.1×10^4 Cells/well for MM1 S and RPMI 8226 (multiple myeloma). After 24 hours, the cells were treated with various concentrations of the compound (ranging from 0.0015 uM to 10 uM). […] After 48 hours of incubation at 37° C., 5% CO2 incubator, cells were analyzed for viability using the CellTiter-Glo Luminescent Cell Viability assay (Promega, Cat #G7570). All viability assays were performed in duplicate and Luminescence was read using an Envision (Perkin Elmer, USA). Data were analyzed using XLfit software. […] (human gastric carcinoma cell line), MM1 S (B lymphoblast cell line), and RPMI 8226 (B lymphocyte cell line, multiple myeloma). Inhibition is indicated as IC50 [nM] (“-”=not measured).

[5] = test system: MDA-MB-468 (breast carcinoma); assay: 48 hr CTG viability assay, MDA-MB-468; assay type: cell-based; conditions: Homo sapiens
Description: as §1

[6] = test system: Hs 746T (human gastric carcinoma cell line); assay: 48 hr CTG viability assay, Hs 746T; assay type: cell-based; conditions: Hs746T, 48 hr CTG, read-out: Hs 746T IC50
Summary of the method: (§2)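 Growth inhibition by compound over 48 h; IC50 (nM) derived from duplicate CellTiter-Glo luminescence readings across 0.0015–10 uM.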

[7] = test system: MM1 S (B lymphoblast cell line); assay: 48 hr CTG viability assay, MM1S; assay type: cell-based; conditions: Homo sapiens, 48 hr CTG, read-out: MM1S IC50
Summary of the method: as §2

[8] = test system: RPMI 8226 (B lymphocyte cell line, multiple myeloma); assay: 48 hr CTG viability assay, RPMI 8226; assay type: cell-based; conditions: Homo sapiens, RPMI-8226; 48 hr CTG; read-out: RPMI-8226 IC50
Summary of the method: as §2

IC50 [1] | IC50 [2] | IC50 [3] | IC50 [4] | IC50 [5] | IC50 [6] | IC50 [7] | IC50 [8] | SMILES
< 100 nM | < 100 nM | < 100 nM | < 100 nM | < 100 nM | < 100 nM | < 100 nM | < 100 nM | Cc1ccc2cc1CNC(=O)[C@H](CCc1ccccc1)NC(=O)[C@@H](NC(=O)[C@@H](C)c1ccc(N)cc1)CC(=O)N1CCCC(CCO2)C1 (stereo partly drawn) [Compound 634, (2S)-2-(4-aminophenyl)-N-((9S,12S)-5^4-methyl-8,11,14-trioxo-9-phenethyl-4-oxa-7,10-diaza-1(3,1)-piperidina-5(1,3)-benzenacyclotetradecaphane-12-yl)propanamide]
< 100 nM | < 100 nM | < 100 nM | < 100 nM | < 100 nM | < 100 nM | < 100 nM | < 100 nM | Cc1ccc2cc1CNC(=O)[C@H](CCc1ccccc1)NC(=O)[C@@H](NC(=O)[C@H](C)c1ccc(N)cc1)CC(=O)N1CCCC(CCO2)C1 (stereo partly drawn) [Compound 738, (2R)-2-(4-aminophenyl)-N-((9S,12S)-5^4-methyl-8,11,14-trioxo-9-phenethyl-4-oxa-7,10-diaza-1(3,1)-piperidina-5(1,3)-benzenacyclotetradecaphane-12-yl)propanamide]
